Experimental findings from patent US20200239530A1, “COMPOUNDS AND METHODS OF MODULATING PROTEIN DEGRADATION” (Vividion Therapeutics, Inc., priority 2017, published 2020) are described below.

What all share (assay): Cysteine liganding, probe competition
What all share (assay type): binding

Experiment [1] deals with T1, VPS18 Vacuolar protein sorting-associated protein 18 homolog (Homo sapiens, UniProt Q9P253).
T1 construct: Cells were resuspended in cold PBS on ice and sonicated with a probe sonicator to achieve lysis; endogenous in cells
T1 sequence (Q9P253 1-973): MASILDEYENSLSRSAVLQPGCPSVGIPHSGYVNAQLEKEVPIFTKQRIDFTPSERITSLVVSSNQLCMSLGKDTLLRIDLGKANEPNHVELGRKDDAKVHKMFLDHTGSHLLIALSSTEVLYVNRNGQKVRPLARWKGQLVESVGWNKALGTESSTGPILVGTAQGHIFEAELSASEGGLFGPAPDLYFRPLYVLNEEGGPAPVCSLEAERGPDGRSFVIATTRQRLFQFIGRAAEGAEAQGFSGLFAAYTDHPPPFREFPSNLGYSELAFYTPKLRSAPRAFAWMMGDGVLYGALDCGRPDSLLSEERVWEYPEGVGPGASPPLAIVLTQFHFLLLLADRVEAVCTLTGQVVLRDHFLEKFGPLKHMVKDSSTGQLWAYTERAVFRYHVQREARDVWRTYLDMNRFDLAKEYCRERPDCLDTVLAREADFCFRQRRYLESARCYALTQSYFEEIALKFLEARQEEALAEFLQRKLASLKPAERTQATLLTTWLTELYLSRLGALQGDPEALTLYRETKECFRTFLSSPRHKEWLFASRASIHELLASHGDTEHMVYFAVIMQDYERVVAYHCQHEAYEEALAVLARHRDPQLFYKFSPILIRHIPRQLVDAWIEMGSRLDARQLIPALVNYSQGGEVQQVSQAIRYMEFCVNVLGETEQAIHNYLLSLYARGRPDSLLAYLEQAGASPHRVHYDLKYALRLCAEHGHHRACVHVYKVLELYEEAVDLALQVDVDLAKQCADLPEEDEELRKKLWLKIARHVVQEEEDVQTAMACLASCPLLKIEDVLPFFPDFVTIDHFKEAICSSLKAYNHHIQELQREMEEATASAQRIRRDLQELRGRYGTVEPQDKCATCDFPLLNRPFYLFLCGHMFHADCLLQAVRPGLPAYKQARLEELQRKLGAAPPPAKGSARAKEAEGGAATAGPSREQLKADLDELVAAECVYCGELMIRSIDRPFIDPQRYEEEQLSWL
In a few lines: (§1)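 Steps: sonicate cells in cold PBS; treat 5 mg/ml lysate with compound (25° C, 1 hr); add desthiobiotin iodoacetamide probe from a 10 mM stock (25° C, 1 hr); precipitate, reduce, alkylate, digest with trypsin; capture labelled peptides on streptavidin for analysis.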

The target in experiment [2] is T2, UBR2 E3 ubiquitin-protein ligase UBR2 (Homo sapiens, UniProt Q8IWV8).
T2 construct: Cells were resuspended in cold PBS on ice and sonicated with a probe sonicator to achieve lysis; endogenous in cells
In a few lines:
as §1

Experiment [3] concerns the target T3, PRMT5 Protein arginine N-methyltransferase 5 (Homo sapiens, UniProt O14744).
T3 construct: Cells were resuspended in cold PBS on ice and sonicated with a probe sonicator to achieve lysis; endogenous in cells
The method in brief:
as §1

In experiment [4] the target is T4, GAMT Guanidinoacetate N-methyltransferase (Homo sapiens, UniProt Q14353).
T4 construct: 200 μL of lysate containing 5 mg/ml proteome was treated with 2 μL of 100× compound stock; endogenous in cells
In a few lines:
as §1

T2 sequence (Q8IWV8 whole entry): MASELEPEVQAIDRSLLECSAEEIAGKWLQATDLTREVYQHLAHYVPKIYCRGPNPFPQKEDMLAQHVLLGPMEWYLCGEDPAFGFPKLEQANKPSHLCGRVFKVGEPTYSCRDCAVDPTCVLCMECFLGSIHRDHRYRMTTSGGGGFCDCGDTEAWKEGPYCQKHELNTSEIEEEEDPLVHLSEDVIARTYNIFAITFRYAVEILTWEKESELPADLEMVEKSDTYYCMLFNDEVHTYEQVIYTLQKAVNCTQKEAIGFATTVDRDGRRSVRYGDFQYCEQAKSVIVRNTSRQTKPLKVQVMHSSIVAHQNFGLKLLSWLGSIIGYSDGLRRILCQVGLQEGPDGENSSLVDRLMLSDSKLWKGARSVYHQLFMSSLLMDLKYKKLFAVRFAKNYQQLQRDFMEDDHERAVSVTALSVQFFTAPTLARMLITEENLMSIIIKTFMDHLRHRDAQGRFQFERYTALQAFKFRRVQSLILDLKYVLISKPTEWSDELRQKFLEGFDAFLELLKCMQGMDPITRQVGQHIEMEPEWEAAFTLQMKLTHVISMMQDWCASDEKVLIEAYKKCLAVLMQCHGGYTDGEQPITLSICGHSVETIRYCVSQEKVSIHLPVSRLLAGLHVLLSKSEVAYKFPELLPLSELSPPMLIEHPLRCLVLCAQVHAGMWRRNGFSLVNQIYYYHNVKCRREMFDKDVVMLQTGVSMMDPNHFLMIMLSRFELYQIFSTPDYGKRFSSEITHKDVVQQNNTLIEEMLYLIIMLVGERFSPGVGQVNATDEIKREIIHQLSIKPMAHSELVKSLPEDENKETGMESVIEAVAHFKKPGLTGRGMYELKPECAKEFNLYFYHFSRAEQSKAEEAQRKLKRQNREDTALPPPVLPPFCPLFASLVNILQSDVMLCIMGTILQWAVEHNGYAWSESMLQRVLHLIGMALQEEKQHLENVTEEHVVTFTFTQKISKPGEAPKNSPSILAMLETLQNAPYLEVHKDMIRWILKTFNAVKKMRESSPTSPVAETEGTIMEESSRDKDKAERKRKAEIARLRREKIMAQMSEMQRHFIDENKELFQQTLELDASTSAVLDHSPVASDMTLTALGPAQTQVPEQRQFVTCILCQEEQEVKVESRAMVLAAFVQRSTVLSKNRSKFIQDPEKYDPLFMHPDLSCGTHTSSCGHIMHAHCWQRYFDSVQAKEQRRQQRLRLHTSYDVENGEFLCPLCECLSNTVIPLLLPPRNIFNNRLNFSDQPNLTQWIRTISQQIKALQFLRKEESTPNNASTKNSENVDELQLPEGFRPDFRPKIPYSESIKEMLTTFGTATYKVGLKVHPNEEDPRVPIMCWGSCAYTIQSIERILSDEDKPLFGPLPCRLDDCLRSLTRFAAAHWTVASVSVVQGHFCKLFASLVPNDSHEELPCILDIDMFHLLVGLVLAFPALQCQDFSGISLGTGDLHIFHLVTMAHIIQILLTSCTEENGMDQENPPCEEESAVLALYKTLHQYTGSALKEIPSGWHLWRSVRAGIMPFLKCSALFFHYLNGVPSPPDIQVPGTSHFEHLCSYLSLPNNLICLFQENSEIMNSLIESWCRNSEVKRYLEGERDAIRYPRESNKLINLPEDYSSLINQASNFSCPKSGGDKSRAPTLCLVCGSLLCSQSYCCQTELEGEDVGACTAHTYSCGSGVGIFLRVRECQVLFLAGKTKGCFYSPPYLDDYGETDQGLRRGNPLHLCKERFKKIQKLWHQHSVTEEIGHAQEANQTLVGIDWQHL
T3 sequence (O14744 whole entry): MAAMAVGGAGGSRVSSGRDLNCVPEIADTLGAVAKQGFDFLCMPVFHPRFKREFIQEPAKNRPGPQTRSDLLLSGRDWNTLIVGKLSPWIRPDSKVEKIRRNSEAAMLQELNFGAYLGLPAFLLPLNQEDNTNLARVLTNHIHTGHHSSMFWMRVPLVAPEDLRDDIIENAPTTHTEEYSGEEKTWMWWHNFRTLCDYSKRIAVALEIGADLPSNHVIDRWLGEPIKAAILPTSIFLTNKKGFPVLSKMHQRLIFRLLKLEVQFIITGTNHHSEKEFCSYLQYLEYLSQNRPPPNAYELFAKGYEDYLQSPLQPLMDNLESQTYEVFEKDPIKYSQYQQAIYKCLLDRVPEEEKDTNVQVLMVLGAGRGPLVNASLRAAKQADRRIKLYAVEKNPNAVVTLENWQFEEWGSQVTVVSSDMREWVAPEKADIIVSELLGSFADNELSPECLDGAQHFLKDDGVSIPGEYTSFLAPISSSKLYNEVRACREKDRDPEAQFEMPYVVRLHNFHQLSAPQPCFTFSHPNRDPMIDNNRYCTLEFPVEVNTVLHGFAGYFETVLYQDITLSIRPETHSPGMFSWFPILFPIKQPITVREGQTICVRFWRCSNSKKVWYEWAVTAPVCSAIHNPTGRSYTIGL
T3 sequence (Q9BQA1 whole entry partner): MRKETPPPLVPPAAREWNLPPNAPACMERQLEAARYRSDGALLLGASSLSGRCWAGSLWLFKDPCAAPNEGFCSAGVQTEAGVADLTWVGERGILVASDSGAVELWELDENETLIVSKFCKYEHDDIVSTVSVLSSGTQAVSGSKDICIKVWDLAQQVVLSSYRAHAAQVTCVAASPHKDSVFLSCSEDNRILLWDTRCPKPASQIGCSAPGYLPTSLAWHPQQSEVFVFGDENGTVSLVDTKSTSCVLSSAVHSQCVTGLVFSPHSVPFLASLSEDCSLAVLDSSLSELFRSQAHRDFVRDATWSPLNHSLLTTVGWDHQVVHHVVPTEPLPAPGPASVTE

As to `COc1ccc2c(c1)CCCN2C(=O)CCl` [KB02], the Liganded entry in experiment [1] (VPS18 Res# 806, uniprot Q9P253) is reported as “YES”; in experiment [2] (UBR2 Res# 1717, uniprot Q8IWV8), “YES”; in experiment [3] (PRMT5 Res# 278, uniprot O14744), “YES”; in experiment [4] (GAMT Res# 91, uniprot Q14353), “YES”.

`O=C(CCl)Nc1cc(C(F)(F)F)cc(C(F)(F)F)c1` [KBO3]: the “100 Max” value in experiment [1] (uniprot Q9P253) was 19.6; in experiment [2] (uniprot Q8IWV8), 18.5; in experiment [3] (uniprot O14744, in % (unit assumed)), 16.62; in experiment [4] (uniprot Q14353), −9.9. Further, the 100 ave in experiment [1] (uniprot Q9P253) is on record as 16.2; in experiment [2] (uniprot Q8IWV8), 8.3; in experiment [3] (uniprot O14744), 16.62; in experiment [4] (uniprot Q14353), −25.93. Besides, the “500 Max” value stood at 47.0 in experiment [1] (uniprot Q9P253); 65.9% in experiment [2] (uniprot Q8IWV8, unit assumed); 45.47 in experiment [3] (uniprot O14744); 16.85 in experiment [4] (uniprot Q14353, in % (unit assumed)). Besides, the 500 ave in experiment [1] (uniprot Q9P253) amounted to 47.0; in experiment [2] (uniprot Q8IWV8), 60.0; in experiment [3] (uniprot O14744) it was 45.47; in experiment [4] (uniprot Q14353), 6.05.
